Molecular target: T1, KRAS (G12D) (Homo sapiens, UniProt P01116, G12D)
T1 construct: in-cell western with KRAS G12D antibody after 24 h
Experiment: KRAS (G12D) cellular degradation assay in AsPC-1 cells
Format: cell-based
Conditions: 24 hours, antibody fluorescence (Odyssey CLX), DC50 half-maximal degradation concentration
Summary of the method: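 Read-outs were KRAS G12D immunofluorescence against β-actin after 24 h (DC50) and CellTiter Glo luminescence after 6 days (IC50). Compounds were titrated 1:3 from […] to 1.5 nM final on AsPC-1 cells at 37 °C, 5% CO2.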

T1 sequence (P01116 1-188 isoform P01116-2 G12D): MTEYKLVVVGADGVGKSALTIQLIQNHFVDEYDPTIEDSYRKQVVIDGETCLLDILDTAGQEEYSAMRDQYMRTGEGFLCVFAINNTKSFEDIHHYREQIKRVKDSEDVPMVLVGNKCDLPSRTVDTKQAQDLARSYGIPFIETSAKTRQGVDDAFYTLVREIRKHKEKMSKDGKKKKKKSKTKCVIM

Structure (SMILES) | DC50
CCn1nccc1-c1ccc([C@H](CO)NC(=O)[C@@H]2C[C@@H](O)CN2C(=O)[C@H](C(C)C)n2cc(-c3ccc(COc4c(-c5c(C)c(F)cc6[nH]ncc56)c(C5CC5)cc5c(N(C)C[C@H]6CCCN6)nc(OC[C@H](C)OC)nc45)cc3)nn2)cc1 [Example 218, (2S,4R)-1-((2S)-2-(4-(4-(((6-cyclopropyl-7-(6-fluoro-5-methyl-1H-indazol-4-yl)-2-((S)-2-methoxypropoxy)-4-(methyl(((R)-pyrrolidin-2-yl)methyl)amino)quinazolin-8-yl)oxy)methyl)phenyl)-1H-1,2,3-triazol-1-yl)-3-methylbutanoyl)-N—((R)-1-(4-(1-ethyl-1H-pyrazol-5-yl)phenyl)-2-hydroxyethyl)-4-hydroxypyrrolidine-2-carboxamide] | > 1000 nM
CCn1nccc1-c1ccc([C@@H](NC(=O)[C@@H]2C[C@@H](O)CN2C(=O)[C@H](C(C)C)n2cc(-c3ccc(COc4c(-c5c(C)c(F)cc6[nH]ncc56)c(C5CC5)cc5c(N(C)[C@@H]6CCNC6)nc(O[C@H]6C[C@H](OC)C6)nc45)cc3)nn2)[C@H](C)O)cc1F [Example 220, (2S,4R)-1-((2S)-2-(4-(4-(((6-cyclopropyl-7-(6-fluoro-5-methyl-1H-indazol-4-yl)-2-((1r,3R)-3-methoxycyclobutoxy)-4-(methyl((R)-pyrrolidin-3-yl)amino)quinazolin-8-yl)oxy)methyl)phenyl)-1H-1,2,3-triazol-1-yl)-3-methylbutanoyl)-N-((1R,2S)-1-(4-(1-ethyl-1H-pyrazol-5-yl)-3-fluorophenyl)-2-hydroxypropyl)-4-hydroxypyrrolidine-2-carboxamide] | < 10 nM

Second part, the compound after the results:

DC50 | Structure (SMILES)
< 10 nM | CCn1nccc1-c1ccc([C@@H](NC(=O)[C@@H]2C[C@@H](O)CN2C(=O)[C@H](C(C)C)n2cc(-c3ccc(COc4c(-c5c(C)c(F)cc6[nH]ncc56)c(C5CC5)cc5c(N(C)[C@H]6CCNC6)nc(OC[C@H]6CCCO6)nc45)cc3)nn2)[C@H](C)O)c2c1CC2 [Example 209, (2S,4R)-1-((2S)-2-(4-(4-(((6-cyclopropyl-7-(6-fluoro-5-methyl-1H-indazol-4-yl)-4-(methyl((S)-pyrrolidin-3-yl)amino)-2-(((R)-tetrahydrofuran-2-yl)methoxy)quinazolin-8-yl)oxy)methyl)phenyl)-1H-1,2,3-triazol-1-yl)-3-methylbutanoyl)-N-((1R,2S)-1-(5-(1-ethyl-1H-pyrazol-5-yl)bicyclo[4.2.0]octa-1(6),2,4-trien-2-yl)-2-hydroxypropyl)-4-hydroxypyrrolidine-2-carboxamide]
> 1000 nM | CO[C@@H](C)COc1nc(N2C[C@H]3C[C@@H]2CN3)c2cc(C3CC3)c(-c3c(C)c(F)cc4[nH]ncc34)c(OCc3ccc(-c4cn([C@H](C(=O)N5C[C@H](O)C[C@H]5C(=O)NCc5ccc(-c6scnc6C)cc5)C(C)C)nn4)cc3)c2n1 (single isomer, unassigned) [Example 11B]
10 to 100 nM | CCn1nccc1-c1ccc([C@H](CO)NC(=O)[C@@H]2C[C@@H](O)CN2C(=O)[C@H](C(C)C)n2cc(-c3ccc(COc4c(-c5c(C)c(F)cc6[nH]ncc56)c(C5CC5)cc5c(N6CCNCC[C@@H]6C)nc(OC[C@H](C)OC)nc45)cc3)nn2)cc1 [Example 183, (2S,4R)-1-((2S)-2-(4-(4-(((6-cyclopropyl-7-(6-fluoro-5-methyl-1H-indazol-4-yl)-2-((S)-2-methoxypropoxy)-4-((S)-7-methyl-1,4-diazepan-1-yl)quinazolin-8-yl)oxy)methyl)phenyl)-1H-1,2,3-triazol-1-yl)-3-methylbutanoyl)-N—((R)-1-(4-(1-ethyl-1H-pyrazol-5-yl)phenyl)-2-hydroxyethyl)-4-hydroxypyrrolidine-2-carboxamide]

From patent publication US20260295053A1, “COMPOUNDS FOR DEGRADATION AND INHIBITION OF KRAS (G12D) PROTEIN” (Shenzhen Ionova Life Science Co., Ltd., priority 2023, published 2026)
